Test results: PMC2671240 (Journal of medicinal chemistry, 2009)
“And” between values parts separate entries of the source, which are not always exact repeats. Equal values may be shown once. Read-outs that look alike come from different tables or passages of the source. Marks after values point to notes of the source that are not given here.

Legend:
[1] = tested on: subcutaneous pentylenetetrazole induced seizures; settings: mice IP; cited from earlier work
[2] = tested on: subcutaneous pentylenetetrazole induced seizures; settings: rat PO; cited from earlier work
[3] = tested on: maximal electroshock induced seizures; assay: Maximal electroshock seizure; assay type: in vivo; settings: rat PO, 30 mg/kg
[4] = tested on: subcutaneous pentylenetetrazole induced seizures; assay: Subcutaneous metrazole seizure; assay type: in vivo, rat; settings: for scMET, number protected/number tested: rat PO
[5] = tested on: minimal muscular or neurological impairment (gait); assay: TOX, abnormal uncoordinated gait, rat PO; assay type: in vivo
[6] = tested on: subcutaneous pentylenetetrazole induced seizures; assay: Subcutaneous metrazole seizure; assay type: in vivo; settings: rat IP, 50 mg/kg
[7] = tested on: minimal muscular or neurological impairment (gait); assay: TOX, abnormal uncoordinated gait, rat IP; assay type: in vivo
kindled motor seizure = assay: Preliminary hippocampal kindling screen, rats IP; assay type: in vivo
α1β3γ2 GABAA receptors = α1β3γ2 GABAA receptors (Homo sapiens, UniProt P14867+P18507); assay: Stimulation of GABA-induced currents in oocytes expressing GABAA receptors; settings: concentration not given
Sequence of α1β3γ2 GABAA receptors (P14867 28-456): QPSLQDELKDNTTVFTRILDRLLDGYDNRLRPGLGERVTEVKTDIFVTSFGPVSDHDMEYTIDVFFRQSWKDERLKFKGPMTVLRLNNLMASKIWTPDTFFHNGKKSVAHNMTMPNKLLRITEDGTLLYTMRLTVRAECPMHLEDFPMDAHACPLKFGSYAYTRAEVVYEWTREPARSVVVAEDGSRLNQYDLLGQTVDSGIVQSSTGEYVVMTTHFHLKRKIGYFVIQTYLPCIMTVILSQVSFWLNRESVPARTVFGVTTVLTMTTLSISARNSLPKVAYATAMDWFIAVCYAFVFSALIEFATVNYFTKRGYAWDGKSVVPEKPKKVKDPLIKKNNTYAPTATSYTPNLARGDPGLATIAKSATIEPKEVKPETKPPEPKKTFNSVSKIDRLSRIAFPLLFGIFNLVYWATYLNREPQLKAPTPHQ
Sequence of α1β3γ2 GABAA receptors (P28472 26-473 partner): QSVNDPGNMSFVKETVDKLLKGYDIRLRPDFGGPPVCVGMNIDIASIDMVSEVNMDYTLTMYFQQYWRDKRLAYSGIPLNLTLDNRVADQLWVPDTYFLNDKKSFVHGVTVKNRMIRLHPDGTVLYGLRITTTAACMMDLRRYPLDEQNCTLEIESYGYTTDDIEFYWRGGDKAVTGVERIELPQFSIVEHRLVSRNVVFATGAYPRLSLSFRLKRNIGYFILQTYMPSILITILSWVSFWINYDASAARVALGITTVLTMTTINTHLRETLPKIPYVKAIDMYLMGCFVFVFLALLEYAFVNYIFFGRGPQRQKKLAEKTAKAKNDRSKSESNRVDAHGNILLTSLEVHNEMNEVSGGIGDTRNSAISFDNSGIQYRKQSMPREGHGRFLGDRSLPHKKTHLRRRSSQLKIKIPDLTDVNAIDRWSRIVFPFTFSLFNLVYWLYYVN
Sequence of α1β3γ2 GABAA receptors (P18507 40-475): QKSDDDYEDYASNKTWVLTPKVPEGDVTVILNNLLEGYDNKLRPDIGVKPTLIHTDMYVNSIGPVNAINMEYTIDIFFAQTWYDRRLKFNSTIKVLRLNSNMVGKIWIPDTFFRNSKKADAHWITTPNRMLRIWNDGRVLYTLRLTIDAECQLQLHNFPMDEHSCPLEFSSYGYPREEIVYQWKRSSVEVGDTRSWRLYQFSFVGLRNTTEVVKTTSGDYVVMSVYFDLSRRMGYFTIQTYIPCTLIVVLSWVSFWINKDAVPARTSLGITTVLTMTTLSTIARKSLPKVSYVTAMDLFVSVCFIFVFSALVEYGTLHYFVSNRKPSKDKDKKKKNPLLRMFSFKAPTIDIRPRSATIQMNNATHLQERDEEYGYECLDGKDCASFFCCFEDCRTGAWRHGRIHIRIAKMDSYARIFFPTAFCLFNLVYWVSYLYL

[8] = tested on: maximal electroshock induced seizures; assay: Maximal electroshock seizure; assay type: in vivo; settings: mice IP, 100mg/kg
[9] = tested on: subcutaneous pentylenetetrazole induced seizures; assay: Subcutaneous metrazole seizure; assay type: in vivo, mice; settings: 100mg/kg; for scMET, number protected/number tested: mice IP
[10] = tested on: minimal muscular or neurological impairment (rotorod); assay: TOX, motor impairment by rotorod paradigm, mice IP; assay type: in vivo; settings: 100mg/kg
[11] = chronic dosing (5 days), data from NINDS; cited from earlier work
seizures = assay: Antiseizure activity in mice dosed ip; assay type: in vivo; settings: data not shown
[12] = rats IP, 30mg/kg, after 1h of dosing (kindling screen table)

## O=C1NC(=O)C(c2ccccc2)(c2ccccc2)N1 [Phenytoin]
[1]
  ED50 scMET: >50 mg/kg
[2]
  ED50 scMET: >500 mg/kg

## C#Cc1ccc2c(c1)C(c1ccccc1F)=NCc1c(C(=O)OCC)ncn1-2 [compound 3]
[3]; 0.5 h
  MES, number protected/number tested: 0/4
[3]; 4.0 h
  MES, number protected/number tested: 1/4
[4]; 50 mg/kg, 0.5 h
  scMET, number protected/number tested: 3/4
[4]; 50 mg/kg, 4.0 h
  scMET, number protected/number tested: 4/4
[5]; 0.5 h
  TOX, number toxic/number tested: 0/4
[5]; 4.0 h
  TOX, number toxic/number tested: 0/4
[6]; 0.5 h
  scMET, number protected/number tested: 3/4
[6]; 4.0 h
  scMET, number protected/number tested: 3/4
[7]; rat IP, 0.5 h
  TOX, number toxic/number tested: 0/4
[7]; rat IP, 4.0 h
  TOX, number toxic/number tested: 0/4
[7]; [12]
  TOX, number toxic/number tested: 0/2 ^e
Kindled motor seizure; 50mg/kg, pre-drug 5
  Seizure Score, Drug L - H: 3
α1β3γ2 GABAA receptors
  efficacy at α1: 282%

## C#Cc1ccc2c(c1)C(c1ccccc1Cl)=NCc1nnc(C)n1-2 [compound 4]
[3]; 0.5 h
  MES, number protected/number tested: 0/4
[3]; 4.0 h
  MES, number protected/number tested: 0/4
[4]; 15 mg/kg, 0.5 h
  scMET, number protected/number tested: 3/4
[4]; 15 mg/kg, 4.0 h
  scMET, number protected/number tested: 2/4
[4]; 50 mg/kg, 0.5 h
  scMET, number protected/number tested: 4/4
[4]; 50 mg/kg, 4.0 h
  scMET, number protected/number tested: 3/4
[5]; 0.5 h
  TOX, number toxic/number tested: 0/4
[5]; 4.0 h
  TOX, number toxic/number tested: 0/4
[7]; rats IP, 3mg/kg, after 1h of dosing (kindling screen table)
  TOX, number toxic/number tested: 0/2 ^f
Kindled motor seizure; 10mg/kg, pre-drug 5
  Seizure Score, Drug L - H: 3

## NC(=O)N1c2ccccc2C=Cc2ccccc21 [Carbamazepine]
[1]
  ED50 scMET: >50 mg/kg

## C#Cc1ccc2c(c1)C(c1ccccn1)=NCc1c(C(=O)OCC)ncn1-2 [compound 2]
[8]; 0.5 h
  MES, number protected/number tested: 0/3
[8]; 4.0 h
  MES, number protected/number tested: 0/3
[9]; 0.5 h
  scMET, number protected/number tested: 3/5
[9]; 4.0 h
  scMET, number protected/number tested: absent and 0/1
[9]; mice ip, 0.5 h
  mice with raised scMET seizure threshold: 60%
[10]; 0.5 h
  TOX, number toxic/number tested: no motor impairment and 0/8
[10]; 4.0 h
  TOX, number toxic/number tested: 0/4
[3]; 0.5 h
  MES, number protected/number tested: 1/4
[3]; 4.0 h
  MES, number protected/number tested: 0/4
[4]; 50 mg/kg, 0.5 h
  scMET, number protected/number tested: 4/4
[4]; 50 mg/kg, 4.0 h
  scMET, number protected/number tested: 0/4
[4]; rats, po dosing, after four hours
  protection (scMET): no protection
[5]; 0.5 h
  TOX, number toxic/number tested: 0/4
[5]; 4.0 h
  TOX, number toxic/number tested: 0/4
[6]; 0.5 h
  scMET, number protected/number tested: 7/8
[7]; rat IP, 0.5 h
  TOX, number toxic/number tested: 0/8
[7]; rat IP, after 1 h of dosing (footnote d, row 4.0 h)
  TOX, number toxic/number tested: 0/8 ^d
[7]; [12]
  TOX, number toxic/number tested: 0/2 ^e
Kindled motor seizure; 100mg/kg, pre-drug 4 5
  Seizure Score, Drug L - H: 3
[11]
  tolerance to the anticonvulsant effects: did not develop
α1β3γ2 GABAA receptors
  efficacy at α1: 233%

## CCOC(=O)c1ncn2c1CN=C(c1ccccc1F)c1cc(I)ccc1-2 [compound 5]
[4]; 50 mg/kg, 0.5 h
  scMET, number protected/number tested: 2/6
[4]; 50 mg/kg, after 1 h of dosing (footnote d, row 4.0 h), 50 mg/kg
  scMET, number protected/number tested: 5/6 and 5/6 ^d
[5]; 0.5 h
  TOX, number toxic/number tested: 0/6
[5]; after 1 h of dosing (footnote d, row 4.0 h)
  TOX, number toxic/number tested: no observed TOX and 0/6 ^d
[6]; 0.5 h
  scMET, number protected/number tested: 1/4
[6]; 4.0 h
  scMET, number protected/number tested: 2/4
[7]; rat IP, 0.5 h
  TOX, number toxic/number tested: 0/4
[7]; rat IP, 4.0 h
  TOX, number toxic/number tested: 0/4
seizures
  activity in mice dosed ip: no activity
